Data on three compounds can be found in the NIST ThermoML archive (doi:10.1021/je101302p).

For this data set the following is noted: Liquid; for mass density: 298.15 K, 101.33 kPa, Vibrating tube method.

± gives the expanded uncertainty stated by the source.

The term mass density denotes the mass of a sample divided by its volume. What is called vapor or sublimation pressure is the equilibrium pressure above the liquid or solid. For the compound `CCCOC(=O)CC` [propyl propanoate], the mass density is given as 881.619 ± 0.3 kg/m3. In addition, the “vapor or sublimation pressure” value (395.1 K) is listed as 101.3 ± 1.7 kPa.
In the case of `CCC(=O)O` [propanoic acid], the mass density is 993.722 ± 0.3 kg/m3. The “vapor or sublimation pressure” value (414.53 K) is listed as 101.3 ± 3.4 kPa.
Take `CCCO` [propan-1-ol]: the mass density is reported as 804.269 ± 0.19 kg/m3. Besides, the “vapor or sublimation pressure” value (370.29 K) is recorded as 101.3 ± 3.4 kPa.
